Experimental data taken from PubChem BioAssay AID1963983 (Molecular Pharmacology Branch, DTP, NCI, 2024).

System: 186277-243-T-J2-PDC multi-cell spheroid viability
Experiment: Anticancer human tumor 186277-243-T-J2-PDC patient-derived colon adenocarcinoma cell line growth inhibition [PI3K]
Conditions: for IC50: curve of first compound; for viability, T/C: stronger effect = lower value
In short: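 Stroma-containing spheroids: tumor line, pooled-donor HUVEC, hMSC. Treatments: targeted agents with PI3K inhibitors. Dosing: clinically relevant, half-log spacing, 10 microM ceiling without known Cmax. Read-out: cell viability.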

[1] = second compound 0.0316 µM, first compound 0.0316 µM
[2] = second compound 0.0316 µM, first compound 0.1 µM
[3] = second compound 0.0316 µM, first compound 0.316 µM
[4] = second compound 0.0316 µM, first compound 1 µM
[5] = second compound 0.0316 µM, first compound 3.16 µM
[6] = second compound 0.0316 µM, first compound 10 µM
[7] = second compound 0.1 µM, first compound 0.0316 µM
[8] = second compound 0.1 µM, first compound 0.1 µM
[9] = second compound 0.1 µM, first compound 0.316 µM
[10] = second compound 0.1 µM, first compound 1 µM
[11] = second compound 0.1 µM, first compound 3.16 µM
[12] = second compound 0.1 µM, first compound 10 µM
[13] = second compound 0.316 µM, first compound 0.0316 µM
[14] = second compound 0.316 µM, first compound 0.1 µM
[15] = second compound 0.316 µM, first compound 0.316 µM
[16] = second compound 0.316 µM, first compound 1 µM
[17] = second compound 0.316 µM, first compound 3.16 µM
[18] = second compound 0.316 µM, first compound 10 µM
[19] = second compound 1 µM, first compound 0.0316 µM
[20] = second compound 1 µM, first compound 0.1 µM
[21] = second compound 1 µM, first compound 0.316 µM
[22] = second compound 1 µM, first compound 1 µM
[23] = second compound 1 µM, first compound 3.16 µM
[24] = second compound 1 µM, first compound 10 µM
[25] = second compound 3.16 µM, first compound 0.0316 µM
[26] = second compound 3.16 µM, first compound 0.1 µM
[27] = second compound 3.16 µM, first compound 0.316 µM
[28] = second compound 3.16 µM, first compound 1 µM
[29] = second compound 3.16 µM, first compound 3.16 µM
[30] = second compound 3.16 µM, first compound 10 µM
[31] = second compound 10 µM, first compound 0.0316 µM
[32] = second compound 10 µM, first compound 0.1 µM
[33] = second compound 10 µM, first compound 0.316 µM
[34] = second compound 10 µM, first compound 1 µM
[35] = second compound 10 µM, first compound 3.16 µM
[36] = second compound 10 µM, first compound 10 µM
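Also: spheroids exposed to compounds for seven days before viability reading.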
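For viability, T/C in this document: 100% = DMSO vehicle control viability.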

`Cn1ncc(Cl)c1-c1cc(C(=O)NC(CN)Cc2cccc(F)c2)sc1Cl` (centres undefined) + Cc1nc(NC(=O)N2CCCC2C(N)=O)sc1-c1ccnc(C(C)(C)C(F)(F)F)c1 was tested, and the IC50 (second compound 0.0316 µM) was 960 nM, the IC50 (second compound 0.1 µM) was 253 nM and the IC50 (second compound 0.316 µM) was 225 nM. For the same compound, the IC50 (second compound 1 µM) was 157 nM, the IC50 (second compound 3.16 µM) was less than 31.6 nM and the IC50 (second compound 10 µM) was less than 31.6 nM. For the same compound, the viability, T/C [1] was 96.2%, the viability, T/C [2] was 87.8% and the viability, T/C [3] was 56.8%. For the same compound, the viability, T/C [4] was 47.8%, the viability, T/C [5] was 43% and the viability, T/C [6] was 17.3%. It also gave a viability, T/C [7] of 112%, a viability, T/C [8] of 68% and a viability, T/C [9] of 43.4%. For the same compound, the viability, T/C [10] was 32.4%, the viability, T/C [11] was 33.2% and the viability, T/C [12] was 11.6%. The viability, T/C [13] was 114%, the viability, T/C [14] was 66.2% and the viability, T/C [15] was 43%. For the same compound, the viability, T/C [16] was 26.3%, the viability, T/C [17] was 25.3% and the viability, T/C [18] was 9.1%. For the same compound, the viability, T/C [19] was 95%, the viability, T/C [20] was 65.7% and the viability, T/C [21] was 25%. It also gave a viability, T/C [22] of 14.7%, a viability, T/C [23] of 17.2% and a viability, T/C [24] of 3.49%. The viability, T/C [25] was 48.7%, the viability, T/C [26] was 33.7% and the viability, T/C [27] was 19.6%. The viability, T/C [28] was 13.7%, the viability, T/C [29] was 8.89% and the viability, T/C [30] was 1.65%. For the same compound, the viability, T/C [31] was 15.7%, the viability, T/C [32] was 8.3% and the viability, T/C [33] was 6.89%. It also gave a viability, T/C [34] of 6.6%, a viability, T/C [35] of 3.36% and a viability, T/C [36] of 3.79%.
`Cn1nccc1Nc1nccc(-c2ccn(C(CO)c3ccc(Cl)c(F)c3)c(=O)c2)n1` (centres undefined) + Cc1nc(NC(=O)N2CCCC2C(N)=O)sc1-c1ccnc(C(C)(C)C(F)(F)F)c1 was tested, and the IC50 (second compound 0.0316 µM) was 1840 nM, the IC50 (second compound 0.1 µM) was 1190 nM and the IC50 (second compound 0.316 µM) was 670 nM. It also gave an IC50 (second compound 1 µM) of 152 nM, an IC50 (second compound 3.16 µM) of less than 31.6 nM and an IC50 (second compound 10 µM) of less than 31.6 nM. The viability, T/C [1] was 89%, the viability, T/C [2] was 104% and the viability, T/C [3] was 117%. It also gave a viability, T/C [4] of 71.3%, a viability, T/C [5] of 34.2% and a viability, T/C [6] of 18.5%. For the same compound, the viability, T/C [7] was 91.8%, the viability, T/C [8] was 108% and the viability, T/C [9] was 99.5%. The viability, T/C [10] was 53.8%, the viability, T/C [11] was 30.9% and the viability, T/C [12] was 22.5%. It also gave a viability, T/C [13] of 105%, a viability, T/C [14] of 100% and a viability, T/C [15] of 76.2%. For the same compound, the viability, T/C [16] was 34.8%, the viability, T/C [17] was 20.5% and the viability, T/C [18] was 9.74%. For the same compound, the viability, T/C [19] was 94.9%, the viability, T/C [20] was 61.1% and the viability, T/C [21] was 30.9%. It also gave a viability, T/C [22] of 13.9%, a viability, T/C [23] of 14% and a viability, T/C [24] of 6.14%. The viability, T/C [25] was 47.4%, the viability, T/C [26] was 29.6% and the viability, T/C [27] was 15%. It also gave a viability, T/C [28] of 5.96%, a viability, T/C [29] of 8.12% and a viability, T/C [30] of 2.21%. For the same compound, the viability, T/C [31] was 9.88%, the viability, T/C [32] was 9.03% and the viability, T/C [33] was 8.27%. It also gave a viability, T/C [34] of 8.15%, a viability, T/C [35] of 1.39% and a viability, T/C [36] of 2.02%.
